# ChEMBL document CHEMBL4680155, “One-pot synthesis and molecular docking of some new spiropyranindol-2-one derivatives as immunomodulatory agents and in vitro antimicrobial potential with DNA gyrase inhibitor” (Eur J Med Chem, 2020)
# Legend:
# Salmonella typhimurium [1] = assay: Antibacterial activity against Salmonella typhi ATCC 6539 assessed as reduction in bacterial growth incubated for 1 day by paper disk diffusion method; type: functional, Salmonella enterica subsp. enterica serovar Typhimurium; conditions: Salmonella enterica, ATCC 6539, 24 h
# Escherichia coli [2] = assay: Antibacterial activity against multidrug resistant Escherichia coli ATCC BAA-196 assessed as diameter of inhibition zone at 0.5 mg/ml incubated for 24 hrs by agar diffusion method; type: functional; conditions: read-out: DIZ
# Neutrophil = assay: Immunomodulatory activity in human neutrophils infected with bacteria assessed as increase in bacterial killing by measuring reduced NBT incubated for 30 mins by NBT dye based spectrophotometry; type: functional; parameters: concentration or dose not given beside the values; conditions: 0.5 h
# Enterococcus faecalis [3] = assay: Bactericidal activity against Enterococcus faecalis ATCC 29212 incubated for 24 hrs followed by transferring to freshly prepared broth medium and measured after 24 hrs by broth microdilution assay; type: functional; conditions: time 48 hrs
# Candida albicans [4] = assay: Fungicidal activity against Candida albicans ATCC 10231 incubated for 24 hrs followed by transferring to freshly prepared broth medium and measured after 24 hrs by broth microdilution assay; type: functional; conditions: time 48 hrs
# Staphylococcus aureus [5] = assay: Antibacterial activity against multidrug resistant Staphylococcus aureus ATCC 33591 assessed as diameter of inhibition zone at 0.5 mg/ml incubated for 24 hrs by agar diffusion method; type: functional; conditions: read-out: DIZ
# Staphylococcus aureus [6] = assay: Antibacterial activity against multidrug resistant Staphylococcus aureus ATCC 43300 assessed as diameter of inhibition zone at 0.5 mg/ml incubated for 24 hrs by agar diffusion method; type: functional; conditions: read-out: DIZ
# Escherichia coli [7] = assay: Bactericidal activity against Escherichia coli ATCC BAA-196 incubated for 24 hrs followed by transferring to freshly prepared broth medium and measured after 24 hrs by broth microdilution assay; type: functional; conditions: time 48 hrs
# Enterococcus faecalis [8] = assay: Antibacterial activity against Enterococcus faecalis ATCC 29212 assessed as reduction in bacterial growth incubated for 1 day by paper disk diffusion method; type: functional; conditions: ATCC 29212, 24 h
# Candida albicans [9] = assay: Antifungal activity against Candida albicans ATCC 10231 assessed as reduction in bacterial growth incubated for 1 day by paper disk diffusion method; type: functional; conditions: ATCC 10231, 24 h
# Escherichia coli [10] = assay: Antibacterial activity against multidrug resistant Escherichia coli ATCC BAA-196 assessed as reduction in bacterial growth incubated for 1 day by paper disk diffusion method; type: functional; conditions: ATCC BAA-196, 24 h
# Aspergillus brasiliensis [11] = assay: Fungicidal activity against Aspergillus brasiliensis ATCC 16404 incubated for 72 hrs followed by transferring to freshly prepared broth medium and measured after 24 hrs by broth microdilution assay; type: functional; conditions: time 96 hrs
# Escherichia coli [12] = assay: Antibacterial activity against Escherichia coli ATCC 25922 assessed as reduction in bacterial growth incubated for 1 day by paper disk diffusion method; type: functional; conditions: ATCC 25922, 24 h
# Enterococcus faecalis [13] = assay: Antibacterial activity against Enterococcus faecalis ATCC 29212 assessed as diameter of inhibition zone at 0.5 mg/ml incubated for 24 hrs by agar diffusion method; type: functional; conditions: read-out: DIZ
# Pseudomonas aeruginosa [14] = assay: Bactericidal activity against Pseudomonas aeruginosa ATCC BAA-2111 incubated for 24 hrs followed by transferring to freshly prepared broth medium and measured after 24 hrs by broth microdilution assay; type: functional; conditions: time 48 hrs
# Pseudomonas aeruginosa [15] = assay: Antibacterial activity against multidrug resistant Pseudomonas aeruginosa ATCC BAA-2111 assessed as reduction in bacterial growth incubated for 1 day by paper disk diffusion method; type: functional; conditions: ATCC BAA-2111, 24 h
# Staphylococcus aureus [16] = assay: Bactericidal activity against Staphylococcus aureus ATCC 29213 incubated for 24 hrs followed by transferring to freshly prepared broth medium and measured after 24 hrs by broth microdilution assay; type: functional; conditions: time 48 hrs
# Aspergillus brasiliensis [17] = assay: Antifungal activity against Aspergillus brasiliensis ATCC 16404 assessed as diameter of inhibition zone at 0.5 mg/ml incubated for 72 hrs by agar diffusion method; type: functional; conditions: read-out: DIZ
# Staphylococcus aureus [18] = assay: Antibacterial activity against Staphylococcus aureus ATCC 29213 assessed as diameter of inhibition zone at 0.5 mg/ml incubated for 24 hrs by agar diffusion method; type: functional; conditions: read-out: DIZ
# Escherichia coli [19] = assay: Bactericidal activity against Escherichia coli ATCC 25922 incubated for 24 hrs followed by transferring to freshly prepared broth medium and measured after 24 hrs by broth microdilution assay; type: functional; conditions: time 48 hrs
# Candida albicans [20] = assay: Antifungal activity against Candida albicans ATCC 10231 assessed as diameter of inhibition zone at 0.5 mg/ml incubated for 24 hrs by agar diffusion method; type: functional; conditions: read-out: DIZ
# Salmonella typhimurium [21] = assay: Bactericidal activity against Salmonella typhi ATCC 6539 incubated for 24 hrs followed by transferring to freshly prepared broth medium and measured after 24 hrs by broth microdilution assay; type: functional, Salmonella enterica subsp. enterica serovar […]; conditions: Salmonella enterica, time 48 hrs
# Salmonella typhimurium [22] = assay: Antibacterial activity against Salmonella typhi ATCC 6539 assessed as diameter of inhibition zone at 0.5 mg/ml incubated for 24 hrs by agar diffusion method; type: functional, Salmonella enterica subsp. enterica serovar Typhimurium; conditions: Salmonella enterica, read-out: DIZ
# Staphylococcus aureus [23] = assay: Bactericidal activity against Staphylococcus aureus ATCC 33591 incubated for 24 hrs followed by transferring to freshly prepared broth medium and measured after 24 hrs by broth microdilution assay; type: functional; conditions: time 48 hrs
# Aspergillus brasiliensis [24] = assay: Antifungal activity against Aspergillus brasiliensis ATCC 16404 assessed as reduction in bacterial growth incubated for 3 days by paper disk diffusion method; type: functional; conditions: ATCC 16404, 72 h, time 3 day
# DNA gyrase = DNA gyrase (Staphylococcus aureus, UniProt P0A0K8+P20831); assay: Inhibition of Staphylococcus aureus DNA gyrase using relaxed pBR322 DNA as substrate incubated for 45 mins by agarose gel electrophoresis method; type: protein-complex assay
# Staphylococcus aureus [25] = assay: Antibacterial activity against multidrug resistant Staphylococcus aureus ATCC 33591 assessed as reduction in bacterial growth incubated for 1 day by paper disk diffusion method; type: functional; conditions: ATCC 33591, 24 h
# Staphylococcus aureus [26] = assay: Antibacterial activity against multidrug resistant Staphylococcus aureus ATCC 43300 assessed as reduction in bacterial growth incubated for 1 day by paper disk diffusion method; type: functional; conditions: ATCC 43300, 24 h
# Staphylococcus aureus [27] = assay: Antibacterial activity against Staphylococcus aureus ATCC 29213 assessed as reduction in bacterial growth incubated for 1 day by paper disk diffusion method; type: functional; conditions: ATCC 29213, 24 h
# Escherichia coli [28] = assay: Antibacterial activity against Escherichia coli ATCC 25922 assessed as diameter of inhibition zone at 0.5 mg/ml incubated for 24 hrs by agar diffusion method; type: functional; conditions: read-out: DIZ
# Pseudomonas aeruginosa [29] = assay: Antibacterial activity against multidrug resistant Pseudomonas aeruginosa ATCC BAA-2111 assessed as diameter of inhibition zone at 0.5 mg/ml incubated for 24 hrs by agar diffusion method; type: functional; conditions: read-out: DIZ
# Staphylococcus aureus [30] = assay: Bactericidal activity against Staphylococcus aureus ATCC 43300 incubated for 24 hrs followed by transferring to freshly prepared broth medium and measured after 24 hrs by broth microdilution assay; type: functional; conditions: time 48 hrs
# Sequence of DNA gyrase (P0A0K8 whole entry, the tested form may be a part): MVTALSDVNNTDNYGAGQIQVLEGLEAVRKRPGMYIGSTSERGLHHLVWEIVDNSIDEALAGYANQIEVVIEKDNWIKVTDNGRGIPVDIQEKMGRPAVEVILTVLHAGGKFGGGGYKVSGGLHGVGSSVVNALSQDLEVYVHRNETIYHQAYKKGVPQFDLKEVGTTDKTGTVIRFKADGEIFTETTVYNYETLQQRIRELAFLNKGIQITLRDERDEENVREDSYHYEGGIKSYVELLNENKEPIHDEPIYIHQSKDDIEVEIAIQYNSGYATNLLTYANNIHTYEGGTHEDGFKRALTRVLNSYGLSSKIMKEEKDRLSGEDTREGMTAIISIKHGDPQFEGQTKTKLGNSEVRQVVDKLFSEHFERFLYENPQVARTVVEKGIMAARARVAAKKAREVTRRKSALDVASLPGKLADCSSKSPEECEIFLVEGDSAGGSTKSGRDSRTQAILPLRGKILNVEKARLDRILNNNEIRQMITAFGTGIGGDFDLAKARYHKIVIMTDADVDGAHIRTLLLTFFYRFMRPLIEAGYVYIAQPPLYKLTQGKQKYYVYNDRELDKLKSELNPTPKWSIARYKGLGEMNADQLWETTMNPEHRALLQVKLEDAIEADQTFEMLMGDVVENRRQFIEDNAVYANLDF
# Sequence of DNA gyrase (P20831 whole entry, the tested form may be a part): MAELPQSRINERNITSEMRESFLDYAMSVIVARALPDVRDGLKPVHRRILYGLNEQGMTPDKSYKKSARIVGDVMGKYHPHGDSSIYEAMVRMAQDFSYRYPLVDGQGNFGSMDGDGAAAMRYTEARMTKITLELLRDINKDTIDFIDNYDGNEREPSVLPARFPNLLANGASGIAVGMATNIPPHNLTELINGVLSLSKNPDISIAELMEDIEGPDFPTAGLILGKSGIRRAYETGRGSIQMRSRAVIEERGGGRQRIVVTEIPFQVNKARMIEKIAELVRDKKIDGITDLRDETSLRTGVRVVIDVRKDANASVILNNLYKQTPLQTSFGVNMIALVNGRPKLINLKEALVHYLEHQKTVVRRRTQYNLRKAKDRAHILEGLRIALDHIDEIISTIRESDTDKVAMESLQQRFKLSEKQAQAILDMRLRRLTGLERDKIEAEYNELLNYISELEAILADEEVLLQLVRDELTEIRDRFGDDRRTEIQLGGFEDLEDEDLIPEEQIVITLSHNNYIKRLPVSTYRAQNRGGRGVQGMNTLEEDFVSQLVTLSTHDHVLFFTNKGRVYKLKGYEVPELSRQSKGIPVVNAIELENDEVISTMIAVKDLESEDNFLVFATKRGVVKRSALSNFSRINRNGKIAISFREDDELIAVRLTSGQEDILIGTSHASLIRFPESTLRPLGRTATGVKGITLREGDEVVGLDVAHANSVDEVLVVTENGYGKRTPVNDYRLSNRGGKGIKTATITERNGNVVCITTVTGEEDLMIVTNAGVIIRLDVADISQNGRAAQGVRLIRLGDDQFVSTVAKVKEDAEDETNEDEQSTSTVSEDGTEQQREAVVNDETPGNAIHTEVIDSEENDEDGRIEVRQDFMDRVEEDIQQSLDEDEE
SMILES,MIC (Salmonella typhimurium [1]) [µg/mL],zone of inhibition at 500 µg/mL (Escherichia coli [2]) [mm],Activity (Neutrophil) [%],MBC (Enterococcus faecalis [3]) [µg/mL],MFC (Candida albicans [4]) [µg/mL],zone of inhibition at 500 µg/mL (Staphylococcus aureus [5]) [mm],zone of inhibition at 500 µg/mL (Staphylococcus aureus [6]) [mm],MBC (Escherichia coli [7]) [µg/mL],MIC (Enterococcus faecalis [8]) [µg/mL],MIC (Candida albicans [9]) [µg/mL],MIC (Escherichia coli [10]) [µg/mL],MFC (Aspergillus brasiliensis [11]) [µg/mL],MIC (Escherichia coli [12]) [µg/mL],zone of inhibition at 500 µg/mL (Enterococcus faecalis [13]) [mm],MBC (Pseudomonas aeruginosa [14]) [µg/mL],MIC (Pseudomonas aeruginosa [15]) [µg/mL],MBC (Staphylococcus aureus [16]) [µg/mL],zone of inhibition at 500 µg/mL (Aspergillus brasiliensis [17]) [mm],zone of inhibition at 500 µg/mL (Staphylococcus aureus [18]) [mm],MBC (Escherichia coli [19]) [µg/mL],further results
CCOC(=O)/C(C#N)=C1\C(=O)Nc2ccc(S(=O)(=O)N3CCOCC3)cc21,31.2,26,152.3,7.8,10.6,25,25,3.14,3.9,6.25,1.57,124,3.9,24,7.8,3.9,21.9,18,25,7.8,zone of inhibition at 500 µg/mL (Candida albicans [20]): 23 mm; MBC (Salmonella typhimurium [21]): 62.5 µg/mL; zone of inhibition at 500 µg/mL (Salmonella typhimurium [22]): 24 mm; MBC (Staphylococcus aureus [23]): 3.7 µg/mL; MIC (Aspergillus brasiliensis [24]): 88.3 µg/mL; IC50 (DNA gyrase): 27 µM; MIC (Staphylococcus aureus [25]): 1.95 µg/mL; MIC (Staphylococcus aureus [26]): 1.95 µg/mL; MIC (Staphylococcus aureus [27]): 15.6 µg/mL; zone of inhibition at 500 µg/mL (Escherichia coli [28]): 26 mm; zone of inhibition at 500 µg/mL (Pseudomonas aeruginosa [29]): 24 mm; MBC (Staphylococcus aureus [30]): 3.12 µg/mL
CCOC(=O)C1=C(N)OC(C)=C(C(C)=O)C12C(=O)Nc1ccc(S(=O)(=O)N3CCOCC3)cc12 (stereo unspecified),31.2,24,136.7,17.6,15.6,23,23,7.8,12.5,8.88,3.9,177,15.6,19,12.5,7.81,100,16,23,20.3,zone of inhibition at 500 µg/mL (Candida albicans [20]): 20 mm; MBC (Salmonella typhimurium [21]): 53.1 µg/mL; zone of inhibition at 500 µg/mL (Salmonella typhimurium [22]): 20 mm; MBC (Staphylococcus aureus [23]): 5.07 µg/mL; MIC (Aspergillus brasiliensis [24]): 88.3 µg/mL; IC50 (DNA gyrase): 25.1 µM; MIC (Staphylococcus aureus [25]): 3.9 µg/mL; MIC (Staphylococcus aureus [26]): 4.44 µg/mL; MIC (Staphylococcus aureus [27]): 62.5 µg/mL; zone of inhibition at 500 µg/mL (Escherichia coli [28]): 21 mm; zone of inhibition at 500 µg/mL (Pseudomonas aeruginosa [29]): 20 mm; MBC (Staphylococcus aureus [30]): 6.66 µg/mL
CC(=O)C1=C(C)OC(N)=C(C#N)C12C(=O)Nc1ccc(S(=O)(=O)N3CCOCC3)cc12 (stereo unspecified),31.2,22,112.9,26.6,15.6,20,21,12.5,17.8,7.81,6.25,150,15.6,20,17.8,8.88,85.3,14,22,23.4,zone of inhibition at 500 µg/mL (Candida albicans [20]): 21 mm; MBC (Salmonella typhimurium [21]): 50 µg/mL; zone of inhibition at 500 µg/mL (Salmonella typhimurium [22]): 19 mm; MBC (Staphylococcus aureus [23]): 9.37 µg/mL; MIC (Aspergillus brasiliensis [24]): 125 µg/mL; IC50 (DNA gyrase): 25.1 µM; MIC (Staphylococcus aureus [25]): 7.81 µg/mL; MIC (Staphylococcus aureus [26]): 7.81 µg/mL; MIC (Staphylococcus aureus [27]): 71.1 µg/mL; zone of inhibition at 500 µg/mL (Escherichia coli [28]): 21 mm; zone of inhibition at 500 µg/mL (Pseudomonas aeruginosa [29]): 18 mm; MBC (Staphylococcus aureus [30]): 12.5 µg/mL
